Results reported in patent US6376753B1, “PURIFIED CYTOCHROME P450 POLYPEPTIDE CYP76B1 FROM HELIANTHUS TUBEROSUS AND ITS APPLICATIONS AS BIOCATALYST IN PARTICULAR FOR THE DEGRADATION OF ENVIRONMENTAL POLLUTANTS AND FOR ALTERING THE RESISTANCE OF PLANTS SENSITIVE TO PHENYLUREA FAMILY OF HERBICIDES” (priority 1997, dated 2002).
Like-named read-outs stand apart in the source and are kept apart here. Each block holds one compound with its values, some of them ahead of it.

Legend:
[1] = system: 7-methoxyresorufin O-dealkylase activity; experiment: Induction of 7-methoxyresorufin O-demethylase activity in tuber slices; type: cell-based, Helianthus tuberosus; settings: 48 hours of treatment
Description: Slices of dormant tuber of Helianthus tuberosus were placed under survival conditions in oxygenated distilled water and stirred with a current of compressed air in the presence of various metals or organic compounds (effectors).
A control was performed with DMSO alone.

CYP76B1 [2] = target: T1, CYP76B1 (Helianthus tuberosus, UniProt O23976); experiment: CYP76B1-dependent metabolism (O-/N-dealkylation) in microsomes of transformed yeast; settings: for Activity: + NADPH; for turnover of the dealkylation: for phenylureas first dealkylation; for conversion / dealkylation by CYP76B1: transformed yeast microsomes, NADPH; for metabolite detection for endogenous molecules: transformed WAT11 yeast microsomes
T1 sequence (O23976 1-490): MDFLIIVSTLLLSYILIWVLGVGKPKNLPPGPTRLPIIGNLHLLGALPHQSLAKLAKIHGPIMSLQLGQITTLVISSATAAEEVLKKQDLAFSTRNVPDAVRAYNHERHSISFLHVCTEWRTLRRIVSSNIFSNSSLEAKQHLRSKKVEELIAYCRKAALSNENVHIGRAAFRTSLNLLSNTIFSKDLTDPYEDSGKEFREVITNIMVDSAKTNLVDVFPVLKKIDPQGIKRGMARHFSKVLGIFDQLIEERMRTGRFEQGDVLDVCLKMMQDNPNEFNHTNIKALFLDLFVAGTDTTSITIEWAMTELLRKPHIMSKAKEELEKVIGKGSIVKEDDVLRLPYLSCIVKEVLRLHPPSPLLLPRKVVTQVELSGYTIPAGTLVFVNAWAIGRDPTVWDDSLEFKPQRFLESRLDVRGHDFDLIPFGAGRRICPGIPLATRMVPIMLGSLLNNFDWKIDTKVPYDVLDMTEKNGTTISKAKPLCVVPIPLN
Description: BamHI and EcoRI sites were introduced by PCR just upstream of the ATG and downstream of the stop codon of the CYP76B1 coding sequence, using the primers 5′-[…] (sense) 5′-[…] (reverse) (SEQ ID NO 3 and SEQ ID NO 4 respectively). The PCR mixture was preheated for 2 min at 92° C. before addition of 1 unit of Pfu DNA polymerase (Stratagene). After 3 min additional heating at 92° C., 30 cycles of amplification were carried out as follows 1 min denaturation at 92° C., 1 min annealing at 52° C., 2 min extension at 72° C. The reaction was completed by 10 min extension at 72° C. After BamHI/EcoRI digestion, the 1470 bp coding sequence was inserted into the vector pYeDP60 (32). Transformation of Saccharomyces cerevisiae W(R), WAT11 and WAT21, and yeast growth were conducted according to Pompon et al. (32). Yeast microsomes were prepared as described in Pierrel et al. (33) with addition of 1% SAB, 2 mM β-mercaptoethanol, 10 mM sodium disulfite and 1 mM PMSF to the extraction buffer. When indicated, 0.5 mM δ-aminolevulinic acid methyl ester (Sigma) was added to the induction medium, or cells were stored at 4° C. for 24 h before preparation of the microsomes.
(§1) Spectrophotometric measurements of P450 content and substrate binding were performed as in (Gabriac et al., 1991) and SDS-PAGE was performed as in Gabriac et al. (34). Gels were stained with Coomassie Blue R-250. Alkoxycoumarins and alkoxyresorufins O-dealkylation was measured by fluorometry (Werck-Reichhart et al., 1990). The data are means ± S.D. of triplicates.
The conversion of other molecules was assayed by TLC or HPLC analysis of polar metabolites formed from radiolabeled compounds (Cabello-Hurtado et al., 1998a, b). NADPH-cytochrome c reductase was assayed according to (Benveniste et al., 1986). Kinetic data were fitted using the nonlinear regression program […] (Duggleby, 1984).
10 μL of non-immune serum or of serum raised against purified ECOD fraction were preincubated 2 min at room temperature with 10 μL of microsomes before addition of the reaction mix. n.d.: not detectable.
Conversion was estimated from the sum of the two polar metabolites detected after TLC analysis. Data are means + S.D. of two to four determinations. n.d.: not detected.
CYP76B1 concentrations in the MCOD, ECOD, MROD and EROD fluorometric assays were 1.5 nM or 2.1 nM, depending on the coexpressed ATR1 or yeast reductases. In the CTUDM assays, CYP76B1 concentrations were 1.7 nM (ATR1) and 8 nM (yeast), respectively. It was 12 nM for the determination of the catalytic parameters of monodemethyl-CTUDM, and 1.7 nM (ATR1) or 20 nM (yeast) in the IPUDM assays. Products were quantified by direct TLC analysis of 100 μL of the acidified incubation medium after 6 min incubation at 30° C. for the CTUDM and IPUDM assays, and after 9 min incubation for the monodemethyl-CTUDM.

CYP76B1 [3] = target: T1, CYP76B1; experiment: biochemical; settings: for ΔAmax × 10^−3: at saturating ligand concentration
Description: as §1
The binding of substrates into the catalytic site of a P450 usually induces a shift of its maximum of absorbance, redox potential and iron spin state (Raag and Poulos, 1989) resulting from the displacement of the water sixth ligand of the heme iron. It is easily detected by differential spectrophotometry as a so-called type I spectrum with a peak at 390 nm and a trough at 420 nm (Jefcoate, 1978). The variation of the differential absorbance ΔA390-420 versus substrate concentration allows the calculation of an apparent dissociation constant (Ks). A high ΔAmax induced by the ligand is usually an indication of correct positioning for catalysis.
CYP76B1 was 60 nM in the assays. Difference spectra were recorded after the addition of increasing concentrations of ligands to the sample cuvette. An equal volume of the herbicide solvent (DMSO) was added to the reference. Ks and ΔAmax at saturating ligand concentration were calculated from the double-reciprocal plots of ΔA(390-420 nm) versus substrate concentrations.

[4] = coexpressed reductase ATR1 (WAT11)
[5] = coexpressed yeast reductase (W(R))
[6] = read-out: KS (apparent dissociation constant), CYP76B1 60 nM, ΔA(390-420 nm) double-reciprocal plots

Compound: Cc1ccc2cc3c(ccc4ccccc43)c3c2c1CC3 [3-methylcholanthrene]
- induction of 7-methoxyresorufin O-dealkylase activity [1]: very strongly induced

Compound: CCOc1ccc2nc3ccc(=O)cc-3oc2c1 [7-ethoxyresorufin]
- Activity (CYP76B1 [2]; W(R) strain): 5.1 pkat mg-1 protein
- turnover of the dealkylation (CYP76B1 [2]; W(R) strain): 6 min⁻¹
- Activity (CYP76B1 [2]; WAT11 strain): 11.6 pkat mg-1 protein
- turnover of the dealkylation (CYP76B1 [2]; WAT11 strain): 22 min⁻¹
- Kcat (CYP76B1 [2]; [4]): 0.467 s⁻¹
- Km (CYP76B1 [2]; [4]): 0.17 µM

Compound: COc1ccc2ccc(=O)oc2c1 [7-methoxycoumarin, 7-Methoxycoumarin]
- Activity (CYP76B1 [2]; W(R) strain): 10.9 pkat mg-1 protein
- turnover of the dealkylation (CYP76B1 [2]; W(R) strain): 13 min⁻¹
- Activity (CYP76B1 [2]; WAT11 strain): 16.4 pkat mg-1 protein
- turnover of the dealkylation (CYP76B1 [2]; WAT11 strain): 31 min⁻¹

Compound: COc1ccc2nc3ccc(=O)cc-3oc2c1 [7-methoxyresorufin]
- Activity (CYP76B1 [2]; W(R) strain): 12.6 pkat mg-1 protein
- turnover of the dealkylation (CYP76B1 [2]; W(R) strain): 15 min⁻¹
- Activity (CYP76B1 [2]; WAT11 strain): 18.6 pkat mg-1 protein
- turnover of the dealkylation (CYP76B1 [2]; WAT11 strain): 41 min⁻¹
- Kcat (CYP76B1 [2]; [4]): 0.683 s⁻¹
- Km (CYP76B1 [2]; [4]): 0.17 µM
- Kcat (CYP76B1 [2]; coexpressed reductase ATR2): 0.717 s⁻¹
- Km (CYP76B1 [2]; coexpressed reductase ATR2): 0.185 µM
- Kcat (CYP76B1 [2]; [5]): 0.25 s⁻¹
- Km (CYP76B1 [2]; [5]): 0.23 µM

- induction of 7-methoxyresorufin O-dealkylase activity [1]: very strongly induced
Compound: COc1c2occc2cc2ccc(=O)oc12 [8-methoxypsoralen]

Compound: CON(C)C(=O)Nc1ccc(Br)c(Cl)c1 [Chlorbromuron]
- Kd (CYP76B1 [3]): 5.3 µM
- ΔAmax × 10^−3 (CYP76B1 [3]; CYP76B1 60 nM): 6.7 × 10^−3
- conversion / dealkylation by CYP76B1 (CYP76B1 [2]): dealkylates

Compound: CC(C)c1ccc(NC(=O)N(C)C)cc1 [Isoproturon, N-(4-isopropylphenyl)-N′,N′-dimethylurea]
- Kd (CYP76B1 [3]): 55 µM
- ΔAmax × 10^−3 (CYP76B1 [3]; CYP76B1 60 nM): 8.2 × 10^−3
- Activity (CYP76B1 [2]; W(R) strain): 128 pkat mg-1 protein
- turnover of the dealkylation (CYP76B1 [2]; W(R) strain): 40 min⁻¹
- Activity (CYP76B1 [2]; WAT11 strain): 475 pkat mg-1 protein
- turnover of the dealkylation (CYP76B1 [2]; WAT11 strain): 147 min⁻¹
- Kcat (CYP76B1 [2]; [4]): 2.45 s⁻¹
- Kcat (CYP76B1 [2]; [5]): 0.667 s⁻¹

Compound: CON(C)C(=O)Nc1ccc(Br)cc1 [Metobromuron]
- Kd (CYP76B1 [3]; [6]): 6.2 µM

Compound: CON(C)C(=O)Nc1ccc(Cl)cc1 [Monolinuron]
- Kd (CYP76B1 [3]): 4.8 µM
- conversion / dealkylation by CYP76B1 (CYP76B1 [2]): dealkylates

Compound: CC1=CC(=O)CC(C)(C)C1(O)/C=C/C(C)=C\C(=O)O (stereo not shown) [abcisic acid]
- metabolite detection for endogenous molecules (CYP76B1 [2]): No metabolite

Compound: c1ccc2c(c1)cc1ccc3cccc4ccc2c1c34 [benzo(a)pyrene]
- induction of 7-methoxyresorufin O-dealkylase activity [1]: very strongly induced

Compound: O=C(O)c1ccccc1 [benzoate, Benzoic acid]
- metabolite detection for endogenous molecules (CYP76B1 [2]): No metabolite

Compound: CCCCCCCCCC(=O)O [capric, capric acid]
- metabolite detection for endogenous molecules (CYP76B1 [2]): No metabolite

Compound: O=C(O)/C=C/c1ccccc1 [cinnamate, trans-Cinnamic acid]
- metabolite detection for endogenous molecules (CYP76B1 [2]): No metabolite

Compound: CCCCC(CC)COC(=O)c1ccccc1C(=O)OCC(CC)CCCC (stereo not shown) [diethylhexylphthalate]
- induction of 7-methoxyresorufin O-dealkylase activity [1]: very strongly induced

Compound: COc1cc(/C=C/C(=O)O)ccc1O [ferulate, ferulic acid]
- metabolite detection for endogenous molecules (CYP76B1 [2]): No metabolite

Compound: COc1cc2oc(=O)ccc2cc1O [isoscopoletin]
- metabolite detection for endogenous molecules (CYP76B1 [2]): No metabolite

Compound: CCCCCCCCCCCC(=O)O [lauric, lauric acid]
- metabolite detection for endogenous molecules (CYP76B1 [2]): No metabolite

Compound: Cl[C@H]1[C@H](Cl)[C@@H](Cl)[C@@H](Cl)[C@H](Cl)[C@H]1Cl [lindane]
- induction of 7-methoxyresorufin O-dealkylase activity [1]: very strongly induced

Compound: CCCCC/C=C\C/C=C\CCCCCCCC(=O)O [linoleic, linoleic acid]
- metabolite detection for endogenous molecules (CYP76B1 [2]): No metabolite

Compound: CC/C=C\C/C=C\C/C=C\CCCCCCCC(=O)O [linolenic, linolenic acid]
- metabolite detection for endogenous molecules (CYP76B1 [2]): No metabolite

Compound: CNC(=O)Nc1ccc(C)c(Cl)c1 [monodemethyl-chlortoluron]
- Kcat (CYP76B1 [2]; [4]): 0.767 s⁻¹
- Km (CYP76B1 [2]; [4]): 81 µM
- conversion / dealkylation by CYP76B1 (CYP76B1 [2]): actively dealkylated

Compound: CCCCCCCCCCCCCC(=O)O [myristic, myristic acid]
- metabolite detection for endogenous molecules (CYP76B1 [2]): No metabolite

Compound: O=C1OC(=O)c2cccc3cccc1c23 [naphthalic anhydride, 1,8-Naphthalic anhydride]
- induction of 7-methoxyresorufin O-dealkylase activity [1]: very strongly induced

Compound: O=C1C[C@@H](c2ccc(O)cc2)Oc2cc(O)cc(O)c21 [naringenin]
- metabolite detection for endogenous molecules (CYP76B1 [2]): No metabolite

Compound: C=C(CC[C@@H](C)[C@H]1CC[C@@]2(C)C3=C(CC[C@]12C)[C@@]1(C)CC[C@H](O)[C@@H](C)[C@@H]1CC3)C(C)C [obtusifoliol]
- metabolite detection for endogenous molecules (CYP76B1 [2]): No metabolite

Compound: CCCCCCCC/C=C\CCCCCCCC(=O)O [oleic, oleic acid]
- metabolite detection for endogenous molecules (CYP76B1 [2]): No metabolite

Compound: CCCCCCCCCCCCCCCC(=O)O [palmitic, palmitic acid]
- metabolite detection for endogenous molecules (CYP76B1 [2]): No metabolite

Compound: COc1cc2ccc(=O)oc2cc1O [scopoletin]
- metabolite detection for endogenous molecules (CYP76B1 [2]): No metabolite

Compound: Metoxuron
- ΔAmax × 10^−3 (CYP76B1 [3]; CYP76B1 60 nM): 6.1 × 10^−3
- Kd (CYP76B1 [3]; [6]): 117 µM

Compound: mercury
- induction of 7-methoxyresorufin O-dealkylase activity [1]: very strongly induced
